Assays:
Format in all cases: physicochemical
[1] = Dissolution studies of tablets, paddle method; conditions: at 30 minutes
Experimental: Dissolution studies were performed using a Hanson SR8PLUS dissolution apparatus, according to European Pharmacopoeia apparatus, paddle method. The samples were tested in 900 mL pH 6.8 with 0.3% SLS at 37.0° C.+/−0.5° C. and the paddle rotation speed was set at 75 rpm. Dissolution study was conducted for 60 min and samples were analyzed using HPLC method.

[2] = Moisture sorption analysis (Dynamic Vapour Sorption); conditions: result in words
Experimental: Water Vapour Sorption isotherms were obtained using a Dynamic Vapour Sorption apparatus (model: DVS—Advantage, supplier: Surface Measurement Systems Limited). The DVS apparatus consists of an ultra-microbalance housed inside a temperature-controlled cabinet. The sample was placed into a DVS sample pan under a stream of nitrogen (200 sccm) at 25° C. The humidity was increased ramping in 10% RH (relative humidity) steps from close to 0% RH to 90% RH (sorption phase). Next the humidity was decreased in a similar fashion for the desorption phase. The sample was held at each RH step for mass stabilization (dm/dt 0.02%/min) but not less than 10 minutes. Two cycles of sorption and desorption were investigated.

[3] = Water solubility of crystalline forms; conditions: for Water solubility: Form B value according to literature findings and experimental data, Form M at the same conditions

Higher dissolution rate compared with prior art Form B [1] | Hygroscopicity [2] | Stability with respect to humidity [2] | Water solubility [3] [µg/mL] | Water solubility of Form M relative to Form B (times greater) ([3]; same conditions) [times] | SMILES
more than 50% | substantially non-hygroscopic | stable with respect to humidity | – | – | CCOc1cc([C@@H](CS(C)(=O)=O)N2C(=O)c3cccc(NC(C)=O)c3C2=O)ccc1OC [Form N, N-[2-[(1S)-1-(3-ethoxy-4-methoxyphenyl)-2-(methylsulfonyl)ethyl]-1,3-dioxo-2,3-dihydro-1H-isoindol-4-yl]acetamide]
– | – | – | 7 to 12 | – | CCOc1cc([C@@H](CS(C)(=O)=O)N2C(=O)c3cccc(NC(C)=O)c3C2=O)ccc1OC [Form B, N-[2-[(1S)-1-(3-ethoxy-4-methoxyphenyl)-2-(methylsulfonyl)ethyl]-1,3-dioxo-2,3-dihydro-1H-isoindol-4-yl]acetamide, reference compound]
– | substantially non-hygroscopic | – | 29 | ~3 | CCOc1cc([C@@H](CS(C)(=O)=O)N2C(=O)c3cccc(NC(C)=O)c3C2=O)ccc1OC [Form M, N-[2-[(1S)-1-(3-ethoxy-4-methoxyphenyl)-2-(methylsulfonyl)ethyl]-1,3-dioxo-2,3-dihydro-1H-isoindol-4-yl]acetamide]

Source: US10774042B2, “Crystalline forms of apremilast” (ZAKLADY FARMACEUTYCZNE POLPHARMA SA, priority 2016, dated 2020)
